Experimental data from patent US20230014151A1, “COMBINATION ANTIVIRAL THERAPY FOR MEASLES” (The Trustees of Columbia University in the City of New York, priority 2019, published 2023).
Like-named read-outs stand apart in the source and are kept apart here. Square brackets hold non-standard residues; d marks the D form. Peptide text beside a SMILES is read from it. * marks the point of attachment. X4 = CC(C)CCC[C@@H](C)[C@H]1CC[C@H]2[C@@H]3CC=C4C[C@@H](OC(=O)CCOCCOCCOCCOCCNC(=O)C*)CC[C@]4(C)[C@H]3CC[C@]12C; X3 = CC(C)CCC[C@@H](C)[C@H]1CC[C@H]2[C@@H]3CC=C4C[C@@H](OC(=O)C*)CC[C@]4(C)[C@H]3CC[C@]12C; Cbz = O=C(OCc1ccccc1)*

Tests used:
[1] = target: measles virus (MeV) fusion protein F, wild type, expressed on cells (measles virus) (UniProt Q786F3); assay: cell-based or functional assay
[2] = target: viral glycoproteins (H and F); Nectin-4 (Measles virus, UniProt Q786F3); assay: beta-galactosidase complementation-based fusion assay, Nectin-4 target cells
[3] = IC50, Table 2 (salient peptides), Nectin-4 target cells
[4] = Nectin4 IC50, Table 3 (extended version)

Compound	IC50, beta-galactosidase complementation-based fusion assay, Nectin-4 target cells [1]	IC90, beta-galactosidase complementation-based fusion assay, Nectin-4 target cells [1]	IC90 [2]	IC50 [2, 4]	IC90 ([2]; read-out: Nectin4 IC90)	other results
FIP-chol (no GSGSG) (peptide)	> 1 µM	> 1 µM	–	–	–	–
CC[C@H](C)[C@H](NC(=O)[C@H](C)NC(=O)[C@H](CC(N)=O)NC(=O)CNC(=O)[C@H](CC(C)C)NC(=O)[C@H](CC(N)=O)NC(=O)[C@@H](NC(=O)CNC(=O)[C@@H](NC(=O)[C@H](CC(=O)O)NC(=O)[C@H](CC(C)C)NC(=O)[C@H](CCCNC(=N)N)NC(=O)[C@H](CCC(=O)O)NC(=O)[C@H](CC(C)C)NC(=O)[C@H](CO)NC(=O)[C@@H](NC(=O)[C@@H]1CCCN1C(=O)[C@@H]1CCCN1C(C)=O)[C@@H](C)CC)C(C)C)[C@@H](C)O)C(=O)N[C@@H](C)C(=O)N[C@@H](CCCCN)C(=O)N[C@@H](CC(C)C)C(=O)N[C@@H](CCC(=O)O)C(=O)N[C@@H](CC(=O)O)C(=O)N[C@@H](C)C(=O)N[C@@H](CCCCN)C(=O)N[C@@H](CCC(=O)O)C(=O)N[C@@H](CC(C)C)C(=O)N[C@@H](CC(C)C)C(=O)N[C@@H](CCC(=O)O)C(=O)N[C@@H](CO)C(=O)N[C@@H](CO)C(=O)N[C@@H](CC(=O)O)C(=O)N[C@@H](CCC(N)=O)C(=O)N[C@H](C(=O)N[C@@H](CC(C)C)C(=O)N[C@@H](CCCNC(=N)N)C(=O)NCC(=O)N[C@@H](CO)C(=O)NCC(=O)N[C@@H](CO)C(=O)NCC(=O)N[C@@H](CS)C(=O)O)[C@@H](C)CC [HRC450-485]	–	–	> 10 µM	> 10 µM	> 10 µM	IC50 [2, 3]: > 10 µM
FIP (no GSGSG), Monomer N-Maleimide (peptide)	> 1 µM	> 1 µM	–	–	–	–
CC[C@H](C)[C@H](NC(=O)[C@H](C)NC(=O)[C@H](CC(N)=O)NC(=O)CNC(=O)[C@H](CC(C)C)NC(=O)[C@H](CC(N)=O)NC(=O)[C@@H](NC(=O)CNC(=O)[C@@H](NC(=O)[C@H](CC(=O)O)NC(=O)[C@H](CC(C)C)NC(=O)[C@H](CCCNC(=N)N)NC(=O)[C@H](CCC(=O)O)NC(=O)[C@H](CC(C)C)NC(=O)[C@H](CO)NC(=O)[C@@H](NC(=O)[C@@H]1CCCN1C(=O)[C@@H]1CCCN1C(C)=O)[C@@H](C)CC)C(C)C)[C@@H](C)O)C(=O)N[C@@H](C)C(=O)N[C@@H](CCCCN)C(=O)N[C@@H](CC(C)C)C(=O)N[C@@H](CCC(=O)O)C(=O)N[C@@H](CC(=O)O)C(=O)N[C@@H](C)C(=O)N[C@@H](CCCCN)C(=O)N[C@@H](CCC(=O)O)C(=O)N[C@@H](CC(C)C)C(=O)N[C@@H](CC(C)C)C(=O)N[C@@H](CCC(=O)O)C(=O)N[C@@H](CO)C(=O)N[C@@H](CO)C(=O)N[C@@H](CC(=O)O)C(=O)N[C@@H](CCC(N)=O)C(=O)N[C@H](C(=O)N[C@@H](CC(C)C)C(=O)N[C@@H](CCCNC(=N)N)C(=O)NCC(=O)N[C@@H](CO)C(=O)NCC(=O)N[C@@H](CO)C(=O)NCC(=O)N[C@@H](CSCC(=O)NCCOCCOCCOCCOCCC(=O)O[C@H]1CC[C@@]2(C)C(=CC[C@H]3[C@@H]4CC[C@H]([C@H](C)CCCC(C)C)[C@@]4(C)CC[C@@H]32)C1)C(=O)O)[C@@H](C)CC [HRC450-485-peg4-chol]	–	–	0.856 ± 0.0786 µM	–	0.856 ± 0.0786 µM	–
CC[C@H](C)[C@H](NC(=O)[C@H](C)NC(=O)[C@H](CC(N)=O)NC(=O)CNC(=O)[C@H](CC(C)C)NC(=O)[C@H](CC(N)=O)NC(=O)[C@@H](NC(=O)CNC(=O)[C@@H](NC(=O)[C@H](CC(=O)O)NC(=O)[C@H](CC(C)C)NC(=O)[C@H](CCCNC(=N)N)NC(=O)[C@H](CCC(=O)O)NC(=O)[C@H](CC(C)C)NC(=O)[C@H](CO)NC(=O)[C@@H](NC(=O)[C@@H]1CCCN1C(=O)[C@@H]1CCCN1C(C)=O)[C@@H](C)CC)C(C)C)[C@@H](C)O)C(=O)N[C@@H](C)C(=O)N[C@@H](CCCCN)C(=O)N[C@@H](CC(C)C)C(=O)N[C@@H](CCC(=O)O)C(=O)N[C@@H](CC(=O)O)C(=O)N[C@@H](C)C(=O)N[C@@H](CCCCN)C(=O)N[C@@H](CCC(=O)O)C(=O)N[C@@H](CC(C)C)C(=O)N[C@@H](CC(C)C)C(=O)N[C@@H](CCC(=O)O)C(=O)N[C@@H](CO)C(=O)N[C@@H](CO)C(=O)N[C@@H](CC(=O)O)C(=O)N[C@@H](CCC(N)=O)C(=O)N[C@H](C(=O)N[C@@H](CC(C)C)C(=O)N[C@@H](CCCNC(=N)N)C(=O)NCC(=O)N[C@@H](CO)C(=O)NCC(=O)N[C@@H](CO)C(=O)NCC(=O)N[C@@H](CSC1CC(=O)N(CCC(=O)NCCOCCOCCOCCOCCOCCOCCOCCOCCOCCOCCOCCNC(=O)CCN2C(=O)CC(SC[C@H](NC(=O)CNC(=O)[C@H](CO)NC(=O)CNC(=O)[C@H](CO)NC(=O)CNC(=O)[C@H](CCCNC(=N)N)NC(=O)[C@H](CC(C)C)NC(=O)[C@@H](NC(=O)[C@H](CCC(N)=O)NC(=O)[C@H](CC(=O)O)NC(=O)[C@H](CO)NC(=O)[C@H](CO)NC(=O)[C@H](CCC(=O)O)NC(=O)[C@H](CC(C)C)NC(=O)[C@H](CC(C)C)NC(=O)[C@H](CCC(=O)O)NC(=O)[C@H](CCCCN)NC(=O)[C@H](C)NC(=O)[C@H](CC(=O)O)NC(=O)[C@H](CCC(=O)O)NC(=O)[C@H](CC(C)C)NC(=O)[C@H](CCCCN)NC(=O)[C@H](C)NC(=O)[C@@H](NC(=O)[C@H](C)NC(=O)[C@H](CC(N)=O)NC(=O)CNC(=O)[C@H](CC(C)C)NC(=O)[C@H](CC(N)=O)NC(=O)[C@@H](NC(=O)CNC(=O)[C@@H](NC(=O)[C@H](CC(=O)O)NC(=O)[C@H](CC(C)C)NC(=O)[C@H](CCCNC(=N)N)NC(=O)[C@H](CCC(=O)O)NC(=O)[C@H](CC(C)C)NC(=O)[C@H](CO)NC(=O)[C@@H](NC(=O)[C@@H]3CCCN3C(=O)[C@@H]3CCCN3C(C)=O)[C@@H](C)CC)C(C)C)[C@@H](C)O)[C@@H](C)CC)[C@@H](C)CC)C(=O)O)C2=O)C1=O)C(=O)O)[C@@H](C)CC (stereo partly shown) [[HRC450-485]2-peg11]	–	–	> 10 µM	–	> 10 µM	IC50 [2]: > 4 µM; IC50 ([2]; read-out: Nectin4 IC50, Table 3 (extended version)): > 4 µM
CC(C)CCC[C@@H](C)[C@H]1CC[C@H]2[C@@H]3CC=C4C[C@@H](OC(=O)CCOCCOCCOCCOCCNC(=O)CSC[C@H](NC(=O)CNC(=O)[C@H](CO)NC(=O)CNC(=O)[C@H](CO)NC(=O)CNC(=O)CNC(=O)[C@H](Cc5ccccc5)NC(=O)[C@@H](Cc5ccccc5)NC(=O)OCc5ccccc5)C(=O)O)CC[C@]4(C)[C@H]3CC[C@]12C [FIP-peg4-chol] (Cbz-[dF]FGGSGSGC(X4)-OH)	–	–	7.615 ± 0.013 µM	–	7.615 ± 0.013 µM	–
FIP-HRC450-485-chol (no GSGSG) (peptide)	0.0859 µM	0.54 µM	–	–	–	–
CC(C)CCC[C@@H](C)[C@H]1CC[C@H]2[C@@H]3CC=C4C[C@@H](OC(=O)CSC[C@H](NC(=O)CNC(=O)[C@H](CO)NC(=O)CNC(=O)[C@H](CO)NC(=O)CNC(=O)CNC(=O)[C@H](Cc5ccccc5)NC(=O)[C@@H](Cc5ccccc5)NC(=O)OCc5ccccc5)C(=O)O)CC[C@]4(C)[C@H]3CC[C@]12C [FIP-chol] (Cbz-[dF]FGGSGSGC(X3)-OH)	–	–	7.615 ± 0.013 µM	> 10 µM	> 10 µM	IC50 [2, 3]: 4 ± 1.08 µM
FIP-peg4-chol (no GSGSG) (peptide)	> 0.7 µM	> 1 µM	–	–	–	–
FIP-HRC450-485-peg4-chol (no GSGSG) (peptide)	0.707 µM	0.825 µM	–	–	–	–
FIP-HRC450-485 (no GSGSG), Monomer N-Maleimide (peptide)	> 0.7 µM	> 10 µM	–	–	–	–
CC[C@H](C)[C@H](NC(=O)[C@H](C)NC(=O)[C@H](CC(N)=O)NC(=O)CNC(=O)[C@H](CC(C)C)NC(=O)[C@H](CC(N)=O)NC(=O)[C@@H](NC(=O)CNC(=O)[C@@H](NC(=O)[C@H](CC(=O)O)NC(=O)[C@H](CC(C)C)NC(=O)[C@H](CCCNC(=N)N)NC(=O)[C@H](CCC(=O)O)NC(=O)[C@H](CC(C)C)NC(=O)[C@H](CO)NC(=O)[C@@H](NC(=O)[C@@H]1CCCN1C(=O)[C@@H]1CCCN1C(=O)CNC(=O)[C@H](CO)NC(=O)CNC(=O)[C@H](CO)NC(=O)CNC(=O)CNC(=O)[C@H](Cc1ccccc1)NC(=O)[C@@H](Cc1ccccc1)NC(=O)OCc1ccccc1)[C@@H](C)CC)C(C)C)[C@@H](C)O)C(=O)N[C@@H](C)C(=O)N[C@@H](CCCCN)C(=O)N[C@@H](CC(C)C)C(=O)N[C@@H](CCC(=O)O)C(=O)N[C@@H](CC(=O)O)C(=O)N[C@@H](C)C(=O)N[C@@H](CCCCN)C(=O)N[C@@H](CCC(=O)O)C(=O)N[C@@H](CC(C)C)C(=O)N[C@@H](CC(C)C)C(=O)N[C@@H](CCC(=O)O)C(=O)N[C@@H](CO)C(=O)N[C@@H](CO)C(=O)N[C@@H](CC(=O)O)C(=O)N[C@@H](CCC(N)=O)C(=O)N[C@H](C(=O)N[C@@H](CC(C)C)C(=O)N[C@@H](CCCNC(=N)N)C(=O)NCC(=O)N[C@@H](CO)C(=O)NCC(=O)N[C@@H](CO)C(=O)NCC(=O)N[C@@H](CS)C(=O)O)[C@@H](C)CC [FIP-HRC450-485]	–	–	> 10 µM	4.24 ± 0.812 µM	> 10 µM	IC50 [2, 3]: 4.24 ± 0.812 µM
CC[C@H](C)[C@H](NC(=O)[C@H](C)NC(=O)[C@H](CC(N)=O)NC(=O)CNC(=O)[C@H](CC(C)C)NC(=O)[C@H](CC(N)=O)NC(=O)[C@@H](NC(=O)CNC(=O)[C@@H](NC(=O)[C@H](CC(=O)O)NC(=O)[C@H](CC(C)C)NC(=O)[C@H](CCCNC(=N)N)NC(=O)[C@H](CCC(=O)O)NC(=O)[C@H](CC(C)C)NC(=O)[C@H](CO)NC(=O)[C@@H](NC(=O)[C@@H]1CCCN1C(=O)[C@@H]1CCCN1C(=O)CNC(=O)[C@H](CO)NC(=O)CNC(=O)[C@H](CO)NC(=O)CNC(=O)CNC(=O)[C@H](Cc1ccccc1)NC(=O)[C@@H](Cc1ccccc1)NC(=O)OCc1ccccc1)[C@@H](C)CC)C(C)C)[C@@H](C)O)C(=O)N[C@@H](C)C(=O)N[C@@H](CCCCN)C(=O)N[C@@H](CC(C)C)C(=O)N[C@@H](CCC(=O)O)C(=O)N[C@@H](CC(=O)O)C(=O)N[C@@H](C)C(=O)N[C@@H](CCCCN)C(=O)N[C@@H](CCC(=O)O)C(=O)N[C@@H](CC(C)C)C(=O)N[C@@H](CC(C)C)C(=O)N[C@@H](CCC(=O)O)C(=O)N[C@@H](CO)C(=O)N[C@@H](CO)C(=O)N[C@@H](CC(=O)O)C(=O)N[C@@H](CCC(N)=O)C(=O)N[C@H](C(=O)N[C@@H](CC(C)C)C(=O)N[C@@H](CCCNC(=N)N)C(=O)N[C@@H](CS)C(=O)O)[C@@H](C)CC [FIP-HRC450-485 (no GSGSG)]	–	–	–	2.77 ± 1.64 µM	6.37 ± 4.18 µM	–
